Experimental data from PMC13403234, “Engineering Cathepsin S Selective Chemical Probes and Antibody−Drug Conjugates through Substrate Profiling with Unnatural Amino Acids” (Journal of Medicinal Chemistry, 2026).

Key:
[1] = molecular target: T1, Cathepsin B (Homo sapiens, UniProt P07858); test: Labeling of cathepsin B in MDA-MB-231 live cells with Cy5 probes; assay type: cell-based; design: endogenous in cells; host or cells: MDA-MB-231; conditions: cellular environments; probe labeling
Experimental: (§1) 50,000 of MDA-MB-231 cells were seeded into 12-well plate and allowed to attach overnight. The next day, OG-233 and OG-234 probes (1 μM final concentration) were added to the cells and incubated for various times (from 0,5 h up to 24 h). Control cells were preincubated with cathepsin S inhibitors (JN1, JN4, JN7) at 25 μM for 2 h, and then incubated with OG-233 or OG-234 probes for 24 h. Next, cells were harvested and prepared for SDS-PAGE analysis as described in the above section. Electrophoresis was run for 25 min (4−12% Bis-Tris Plus 10-well gel, 200 V). Next, proteins were transferred onto the membrane (0.2 μm nitrocellulose membrane, 10 V, 60 min) and Ponceau S was used to verify equal loading and transfer. Membranes were then blocked with 5% BSA in TBS-T buffer for 1 h at RT. Membranes were next incubated anticathepsin S antibody (1:1,000, overnight, 4 °C), and the next day with a secondary antibody (IRDye 800CW, donkey anti-Goat) for 30 min at RT, and scanned at 680 and 800 nm using the Sapphire biomolecular imager (Azure Biosystems) to detect the Cy5 probes and cathepsin S. All images were analyzed with Image Studio software.

[2] = molecular target: T2, Cathepsin V (Homo sapiens, UniProt O60911); test: Second-order rate constants of inhibition (kobs/[I]), cathepsin V; assay type: biochemical; conditions: Figure 4D; Cy5- and BODIPY-labeled probes
T2 construct: made in house
T2 sequence (O60911 114-334): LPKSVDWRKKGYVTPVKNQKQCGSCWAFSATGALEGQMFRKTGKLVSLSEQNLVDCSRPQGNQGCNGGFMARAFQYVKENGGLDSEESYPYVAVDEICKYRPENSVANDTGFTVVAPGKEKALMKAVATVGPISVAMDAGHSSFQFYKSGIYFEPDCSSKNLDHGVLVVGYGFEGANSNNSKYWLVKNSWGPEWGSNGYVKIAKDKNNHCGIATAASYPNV
Experimental: (§2) All kinetic studies were performed using an fMax fluorescence plate reader (Molecular Devices) in kinetic mode with 96- or 384-well plates. ACC fluorescence was monitored at excitation and emission wavelengths of 355 and 460 nm, respectively. Recombinant human cysteine cathepsins L, V, B, K, and S were expressed and purified as previously described. Prior to use, all cysteine cathepsins were titrated with E64 to normalize enzymatic activity. Assays for cathepsins were conducted in 100 mM sodium acetate buffer containing 10 mM NaCl and 10 mM DTT (pH 5.5). Breast cancer cell lysates (BT-474, MCF-7, MDA-MB-231) were prepared by culturing cells to confluence in the appropriate media, replacing media with PBS, and harvesting the cells using a cell scraper (without trypsin). The cells were pelleted by centrifugation (400 × g, 5 min), resuspended in PBS, and centrifuged again under the same conditions. After removal of the supernatant, the pellet was resuspended in cathepsin assay buffer (excluding DTT) and sonicated. Lysates were then clarified by centrifugation (12,000 × g, 5 min), and the supernatants were collected and stored at −80 °C until use. All enzymatic assays, including HyCoSuL library screening and kinetic analyses of synthetic substrates, inhibitors, probes and prodrugs, were conducted at 37 °C and repeated at least three times. Mean values are reported. Kinetic data were analyzed using GraphPad Prism software (version 10.4.1).
(§3) The second-order rate constants of inhibition (k obs/[I]) were determined for human recombinant cathepsins S, B, L, and V using their respective assay buffers. All measurements were performed under pseudo-first-order kinetic conditions, as previously described. Inhibitors or ABPs were serially diluted in assay buffer and transferred to a 96-well plate. Each well was supplemented with the fluorogenic substrate Cbz-Phe-Arg-AMC at a final concentration of 25 μM and preincubated for 15 min. In parallel, enzymes were preactivated in assay buffer for 15 min at room temperature. Following preincubation, the activated enzymes were added to the wells, and fluorescence was monitored immediately for 30 min. The k obs/[I] values (M^-1S^-1) were calculated from the progress curves and averaged from at least three independent experiments. Final inhibitor (or ABP) concentrations were maintained at a minimum of 5-fold excess relative to enzyme concentrations to ensure pseudo-first-order conditions. Results were analyzed in GraphPad Prism and are reported as mean ± standard deviation.

[3] = molecular target: T3, active cathepsin S in MDA-MB-231 live cells (Homo sapiens, UniProt P25774); test: Labeling of active cathepsin S in MDA-MB-231 live cells with Cy5 probes; assay type: cell-based; conditions: probe 1 μM, 0,5 to 24 h
T3 construct: endogenous in cells; host or cells: MDA-MB-231
T3 sequence (P25774 115-331): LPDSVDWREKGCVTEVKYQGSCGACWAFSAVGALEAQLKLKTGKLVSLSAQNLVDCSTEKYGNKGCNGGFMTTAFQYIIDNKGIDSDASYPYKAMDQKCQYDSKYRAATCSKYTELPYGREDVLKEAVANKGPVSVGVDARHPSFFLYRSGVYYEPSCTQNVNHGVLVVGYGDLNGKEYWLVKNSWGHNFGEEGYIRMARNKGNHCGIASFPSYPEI
Experimental: as §1

[4] = molecular target: T4, Cathepsin S (Homo sapiens, UniProt P25774); test: SDS-PAGE profiling of cathepsin labeling by OG-233 ABP; assay type: biochemical; conditions: cathepsins 10 nM; probe 10, 100, 500 nM; 30 min
T4 construct: made in house
T4 sequence (P25774 115-331): as above
Experimental: Subsequently, each enzyme preparation was incubated with OG-233 at final probe concentrations of 10 nM, 100 nM, and 500 nM for 30 min in a total reaction volume of 200 μL. After incubation, 100 μL of 3× SDS loading buffer containing DTT was added to each sample. The mixtures were boiled for 5 min, and 20 μL of each sample was loaded onto 4−12% Bis-Tris Plus gels (15-well format). Electrophoresis was performed at 200 V for 30 min alongside 2 μL of PageRuler Prestained Protein Ladder. Following separation, the gels were scanned directly at 700 nm (Cy5 fluorescence channel, excitation 685 nm) using a Sapphire biomolecular imager (Azure Biosystems). Band intensities corresponding to labeled cathepsins were quantified using Image Studio software.

[5] = molecular target: T5, Cathepsin L (Homo sapiens, UniProt P07711); test: Second-order rate constants of inhibition (kobs/[I]), cathepsin L; assay type: biochemical; conditions: Figure 4D; Cy5- and BODIPY-labeled probes
T5 construct: made in house
T5 sequence (P07711 114-333): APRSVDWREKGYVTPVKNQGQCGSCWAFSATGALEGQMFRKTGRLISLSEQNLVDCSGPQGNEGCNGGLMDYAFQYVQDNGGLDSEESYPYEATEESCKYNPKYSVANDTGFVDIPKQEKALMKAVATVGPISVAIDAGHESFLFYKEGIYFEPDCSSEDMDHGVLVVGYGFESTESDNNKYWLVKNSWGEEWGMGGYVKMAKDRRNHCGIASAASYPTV
Experimental: as §2, §3

[6] = molecular target: T1, Cathepsin B; test: Second-order rate constants of inhibition (kobs/[I]), cathepsin B; assay type: biochemical; design: made in house; conditions: Figure 4D; Cy5- and BODIPY-labeled probes
Experimental: as §2, §3

[7] = molecular target: T4, Cathepsin S; test: Second-order rate constants of inhibition (kobs/[I]), cathepsin S; assay type: biochemical
Experimental: as §2, §3

## Cy5-PEG(4)-Phe(F5)-Cit-Lys(2ClZ)-Glu(Me)-AOMK [OG-233]
[1]
  off-target labeling of cathepsin B in cells: minor off-target labeling of cathepsin B
[2]
  kobs/[I] Cath V: 460 M⁻¹ s⁻¹
[3]
  detection of active cathepsin S in living cells: able to detect active cathepsin S as soon as upon 3 h incubation
[4]
  labeling of recombinant cathepsins (fluorescent gel scanning): labeled recombinant cathepsin S over other cathepsins
[5]
  kobs/[I] Cath L: 570 M⁻¹ s⁻¹
[6]
  kobs/[I] Cath B: 8,520 M^-1s^-1
[7]; Figure 4D, Cy5- and BODIPY-labeled probes
  kobs/[I] Cath S: 1,537,000 M^-1s^-1
[7]; Figure 4D, calculated from kobs/[I], cathepsin S over cathepsin B
  Selectivity S to B: 180
[7]; Figure 4D, calculated from kobs/[I], cathepsin S over cathepsin L
  Selectivity S to L: 2,700
[7]; Figure 4D, calculated from kobs/[I], cathepsin S over cathepsin V
  Selectivity S to V: 3,340
[7]; cathepsin S kobs/[I], probe vs parent inhibitor
  higher potency than the unlabeled parent inhibitor: over 2 fold
[7]; kobs/[I] based
  selectivity for cathepsin S over cathepsin L: > 2000 fold
  selectivity for cathepsin S over cathepsin V: > 500 fold
